Results on four compounds are retold here after patent US9943536B2, “Reactivation of HIV-1 gene expression to treat persistent HIV infection” (UNIVERSITÉ LIBRE DE BRUXELLES, priority 2011, dated 2018).

What all share (assay type): cell-based
Experiment [1] deals with HIV-1 in HLA DR− CD25− CD69− CD4+ T cells from HIV-1-infected cART-treated patients. As to the kind of experiment: HIV-1 recovery in resting memory (HLA DR− CD25− CD69−) CD4+ T cells from cART-treated patients. The note with it: for concentration of viral RNA in culture supernatants: HLA DR− CD25− CD69− CD4+ T cells, six days after treatment. On the procedure:
Further to Table 3: Cultures of patient cells were mock-treated or treated with indicated compounds. Six days after treatment, the concentration of viral RNA in culture supernatants was determined (in copies/ml; l means below the threshold and ‘/’ indicates an untested condition). Total HIV-1 DNA is expressed as HIV-1 DNA copies/10^6 cells or as log HIV-1 DNA copies/10^6 cells.
FIG. 3. […] Cultures of resting memory CD4^+ T cells were mock-treated or treated as indicated. Six days after treatment, the concentration of viral RNA in culture supernatants was measured (in copies/ml). […] The reactivated patient cultures were classified in relevant categories where HIV-1 recovery after the combined treatment presented a higher viral production than after the individual treatment. […] The reactivated patient cultures were subdivided in two relevant categories: (b1) cultures in which HIV-1 recovery after the combined treatment was higher than after the individual treatments, (b2) and cultures in which a synergistic reactivation of viral RNA production was observed after the combined treatments.
Table 4. […] Cultures of resting memory CD4^+ T cells were mock-treated or treated with BIX-01294. Six days after treatment, the concentration of viral RNA in culture supernatants was determined in copies/ml (l indicates below the threshold).
FIG. 4. […] Cultures of resting memory CD4^+ T cells were mock-treated or treated with BIX-01294 alone, with SAHA alone or with the combinationSAHA+BIX-01294. Six days after treatment, the concentration of viral RNA in culture supernatants was determined in copies/ml (I indicates below the threshold).
Cultures of 2.5×10^5 HLA DR^− CD 25 CD69^− CD4^+ T cells were mock-treated or treated with BIX-01294. Six days after treatment, the concentration of viral RNA in culture supernatants was determined (Table 4).

The test system of experiment [2] is HIV-1 in CD8+-depleted PBMCs from HIV-1-infected cART-treated patients. Nature of the experiment: HIV-1 recovery in ex-vivo cultures of CD8+-depleted PBMCs from cART-treated patients. The note with it: for concentration of viral RNA in culture supernatants: six days after treatment. On the procedure: Table 1. […] Cultures of CD8^+-depleted PBMCs were mock-treated or treated with chaetocin (30, 60 or 90 nmol/l) or with the positive control. Six days after treatment, the concentration of viral RNA in culture supernatants was determined (in copies/ml; ‘l’ indicates below the threshold).
(§1) (a) Cultures of CD8^+-depleted PBMCs were mock-treated or treated with chaetocin (90 nmol/l). Six days after treatment, the concentration of viral RNA in culture supernatants was determined. Total HIV-1 DNA is expressed as HIV-1 DNA copies/10^6 cells or as log HIV-1 DNA copies/10^6 cells (‘/’ indicates not-tested condition). (b) Limiting-dilution cultures of HLA DR^− CD4^+ T cells were mock-treated or treated with chaetocin (45 or 90 nmol/l). The concentration of viral RNA in culture supernatants was determined. The last positive dilution culture indicates the presence of at least one cell carrying replication-competent and chaetocin-responsive virus.
(§2) Cultures comprising 6.10^6 CD8^+-depleted PBMCs were mock-treated or treated with chaetocin. Six days after treatment, the concentration of viral RNA in culture supernatants was determined by the Amplicor method (Roche Diagnostics). The results are depicted in Table 1 and 2A. The percentage of reactivation was calculated on all patients reactivated. Nine out of the eighteen tested PBMC cultures reactivated HIV-1 expression in response to chaetocin treatment, while none of them did when mock-treated. Subsequently, limiting-dilution cultures of HLA DR^− CD4^+ T cells were performed and these cultures were mock-treated or treated with chaetocin. The last positive dilution culture indicates the presence of at least one cell carrying replication-competent HIV-1 virus. The concentration of viral RNA in culture supernatants was determined by the Amplicor method (Roche Diagnostics). Values are expressed in HIV-1 RNA copies/ml.

Experiment [3] concerns HIV-1 in HLA DR− CD4+ T cells from HIV-1-infected cART-treated patients. Nature of the experiment: HIV-1 recovery in limiting-dilution cultures of HLA DR− CD4+ T cells from cART-treated patients. The note with it: for concentration of viral RNA in culture supernatants: limiting dilution, one line per patient. On the procedure: as §1, §2
Setting [4] is: one line per patient culture H19-H34 (Table 3), l = below the threshold.

“And” between values parts separate entries of the source, which are not always exact repeats. Equal values may be shown once.

As to `CC(=O)O[C@@]12C[C@@H](C)[C@@]3(O)[C@@H](C=C(CO)C[C@]4(O)C(=O)C(C)=C[C@@H]34)[C@@H]1C2(C)C` [prostratin, 12-deoxyphorbol 13-acetate], the “concentration of viral RNA in culture supernatants” value (shortened to “concentration of viral RNA”) in experiment [1] (setting [4]) is 612 copies/ml and 1380 copies/ml and 1064 copies/ml and 2508 copies/ml and 2540 copies/ml and 3532 copies/ml and 704 copies/ml and 420 copies/ml.

For the compound `COc1cc2nc(N3CCCN(C)CC3)nc(NC3CCN(Cc4ccccc4)CC3)c2cc1OC` [BIX-01294], in experiment [1] (10 patients (Table 4)), the “% of reactivation” value turned out to be 80%. Also, the “concentration of viral RNA” value in experiment [1] (one line per patient culture (Table 4), I = below the threshold) was 412 copies/ml and 1 780 copies/ml and 1 360 copies/ml and 665 copies/ml and 1624 copies/ml and 1385 copies/ml and 250 copies/ml and 4292 copies/ml; in experiment [1] (setting [4]) it was 665 copies/ml and 1624 copies/ml and 1385 copies/ml and 250 copies/ml and 4292 copies/ml and 412 copies/ml and 1780 copies/ml and 1360 copies/ml. For the same compound, the “reactivated HIV-1 expression, share of resting CD4+ T-cell cultures” value in experiment [1] (cultures from HIV-1+ cART-treated patients (Table 4)) was 80%. The Reactivated patients in experiment [1] (of 10 patients (Table 4)) was determined as 8.

On to `O=C(CCCCCCC(=O)Nc1ccccc1)NO` [SAHA, suberoylanilide hydroxamic acid], for which, in experiment [1] (setting [4]), the “concentration of viral RNA” value was 624 copies/ml and 520 copies/ml and 252 copies/ml and 2248 copies/ml and 908 copies/ml and 952 copies/ml and 336 copies/ml and 540 copies/ml and 1480 copies/ml and 420 copies/ml and 416 copies/ml and 412 copies/ml.

As to `CN1C(=O)[C@@]23C[C@]4([C@]56C[C@@]78SS[C@@](CO)(C(=O)N7[C@H]5Nc5ccccc56)N(C)C8=O)c5ccccc5N[C@@H]4N2C(=O)[C@]1(CO)SS3` [chaetocin], the “% of reactivation” value in experiment [2] (18 patients H1-H18, chaetocin 90 nmol/l or positive control) turned out to be 50%. In addition, the “concentration of viral RNA” value was 1825 copies/ml and 354 copies/ml and 2057 copies/ml and 2371 copies/ml and 1566 copies/ml and 797 copies/ml and 477 copies/ml and 2388 copies/ml and 467 copies/ml in experiment [2] (CD8+-depleted PBMCs, one line per patient culture H1-H18 (Table 3), l = below the threshold); 1139 copies/ml in experiment [2] (chaetocin 30 nM, one line per patient culture, I = below the threshold); 222 copies/ml and 452 copies/ml and 1924 copies/ml in experiment [2] (chaetocin 60 nM, one line per patient culture, I = below the threshold); 2371 copies/ml and 1825 copies/ml and 354 copies/ml and 2057 copies/ml in experiment [2] (chaetocin 90 nM, one line per patient culture, I = below the threshold); 2371 copies/ml and 1566 copies/ml and 797 copies/ml and 477 copies/ml and 2388 copies/ml and 467 copies/ml and 1825 copies/ml and 354 copies/ml and 2057 copies/ml in experiment [2] (chaetocin 90 nmol/l, one line per patient culture H1-H18, I = below the threshold); 288 copies/ml and 831 copies/ml in experiment [3] (chaetocin 45 nM, 1.5 × 10^6 cells). In addition, the “concentration of viral RNA” value is 179 copies/ml and 245 copies/ml and 89 copies/ml and 97 copies/ml and 769 copies/ml in experiment [3] (chaetocin 45 nM, 5 × 10^5 cells); 83 copies/ml and 238 copies/ml in experiment [3] (chaetocin 45 nM, 10^5 cells); 284 copies/ml and 94 copies/ml and 292 copies/ml and 702 copies/ml in experiment [3] (chaetocin 45 nM, 10^6 cells); 377 copies/ml and 1050 copies/ml in experiment [3] (chaetocin 90 nM, 1.5 × 10^6 cells); 76 copies/ml in experiment [3] (chaetocin 90 nM, 5 × 10^4 cells); 147 copies/ml and 118 copies/ml and 68 copies/ml and 52 copies/ml and 1043 copies/ml in experiment [3] (chaetocin 90 nM, 5 × 10^5 cells). Moreover, the “concentration of viral RNA” value in experiment [3] (chaetocin 90 nM, 10^5 cells) was 51 copies/ml and 50 copies/ml and 47 copies/ml and 359 copies/ml; in experiment [3] (chaetocin 90 nM, 10^6 cells), 178 copies/ml and 131 copies/ml and 791 copies/ml; in experiment [1] (setting [4]), 832 copies/ml and 180 copies/ml and 2780 copies/ml and 1244 copies/ml and 1616 copies/ml and 2000 copies/ml and 680 copies/ml and 4944 copies/ml and 300 copies/ml and 328 copies/ml and 2456 copies/ml and 1000 copies/ml. The Reactivated patients in experiment [2] (chaetocin 30 nM, of 6 patients H1-H6) turned out to be 1; in experiment [2] (chaetocin 60 nM, of 6 patients H1-H6), 3; in experiment [2] (chaetocin 90 nM, of 6 patients H1-H6) it was 4; in experiment [2] (of 18 patients H1-H18, chaetocin 90 nmol/l or positive control), 9. Further, in experiment [2] (cultures from HIV-1+ cART-treated patients (Table 2a)), the “HIV-1 recovery, share of CD8+-depleted PBMCs cultures” value came to 50%. Moreover, the “HIV-1 recovery, share of resting CD4+ T-cell cultures” value in experiment [3] (cultures from HIV-1+ cART-treated patients (Table 2b)) is listed as 86%.
